Assays:
Format in all cases: in vivo
[1] = system: upland rice (Oryza sp., var.Tebonnet, RICE); assay: Pre-emerge greenhouse test, crop damage rating; conditions: 14 days after application, rating scale 0-100
Summary of the method: (§1)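 Seeds sown in sandy loam one day before track-sprayer application of acetone solutions at 125–1000 g ai/ha (187 l/ha), then surface-watered to incorporate and bottom-watered. Injury scored visually at 14 days on a 0–100 scale (0 no damage, 100 complete death).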

[2] = system: field corn (Zea mays L., var. Dekalb 535, CORN); assay: Pre-emerge greenhouse test, crop damage rating; conditions: 14 days after application, rating scale 0-100
Summary of the method: as §1

[3] = system: common ragweed (Ambrosia artemisiifolia L., AMBEL); assay: Post-emerge greenhouse herbicide test, phytotoxicity rating; conditions: 14 days after application
Summary of the method: (§2)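 Plants at the 2-3 leaf stage, sown 8-21 days earlier, were track-sprayed post-emergence with compound in acetone plus 0.25% v/v non-ionic surfactant at 63-1000 g ai/ha (187 l/ha). Damage was rated at 14 days on a 0-100 scale (0 none, 100 all plants dead), for both crop injury and weed control.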

[4] = system: barnyardgrass (Echinochloa crusgalli, ECHCG); assay: Pre-emerge greenhouse herbicide test, phytotoxicity rating; conditions: 14 days after application, rating scale 0-100
Summary of the method: as §1

[5] = system: redroot pigweed (Amaranthus retroflexus, AMARE); assay: as above; conditions: 14 days after application, rating scale 0-100
Summary of the method: as §1

[6] = system: green foxtail (Setaria viridis, SETVI); assay: as above; conditions: 14 days after application, rating scale 0-100
Summary of the method: as §1

[7] = system: common ragweed (Ambrosia artemisiifolia L., AMBEL); assay: as above; conditions: 14 days after application, rating scale 0-100
Summary of the method: as §1

[8] = system: ivyleaf morningglory (Ipomoea hederacea, IPOHE); assay: as above; conditions: 14 days after application, rating scale 0-100
Summary of the method: as §1

[9] = system: large crabgrass (Digitaria sanguinalis, DIGSA); assay: as above; conditions: 14 days after application, rating scale 0-100
Summary of the method: as §1

[10] = system: Johnsongrass (Sorghum halepense, SORHA); assay: as above; conditions: 14 days after application, rating scale 0-100
Summary of the method: as §1

[11] = system: lambsquarters (Chenopodium album, CHEAL); assay: as above; conditions: 14 days after application, rating scale 0-100
Summary of the method: as §1

[12] = system: sicklepod (Cassia obtusifolia, CASOB); assay: as above; conditions: 14 days after application, rating scale 0-100
Summary of the method: as §1

[13] = system: velvetleaf (Abutilon theophrasti, ABUTH); assay: as above; conditions: 14 days after application, rating scale 0-100
Summary of the method: as §1

[14] = system: upland rice (Oryza sp., var.Tebonnet, RICE); assay: Post-emerge greenhouse test, crop damage rating; conditions: 14 days after application
Summary of the method: as §2

[15] = system: field corn (Zea mays L., var. Dekalb 535, CORN); assay: Post-emerge greenhouse test, crop damage rating; conditions: 14 days after application
Summary of the method: as §2

[16] = system: barnyardgrass (Echinochloa crusgalli, ECHCG); assay: Post-emerge greenhouse herbicide test, phytotoxicity rating; conditions: 14 days after application
Summary of the method: as §2

[17] = system: redroot pigweed (Amaranthus retroflexus, AMARE); assay: as above; conditions: 14 days after application
Summary of the method: as §2

[18] = system: green foxtail (Setaria viridis, SETVI); assay: as above; conditions: 14 days after application
Summary of the method: as §2

[19] = system: ivyleaf morningglory (Ipomoea hederacea, IPOHE); assay: as above; conditions: 14 days after application
Summary of the method: as §2

[20] = system: large crabgrass (Digitaria sanguinalis, DIGSA); assay: as above; conditions: 14 days after application
Summary of the method: as §2

[21] = system: Johnsongrass (Sorghum halepense, SORHA); assay: as above; conditions: 14 days after application
Summary of the method: as §2

[22] = system: lambsquarters (Chenopodium album, CHEAL); assay: as above; conditions: 14 days after application
Summary of the method: as §2

[23] = system: sicklepod (Cassia obtusifolia, CASOB); assay: as above; conditions: 14 days after application
Summary of the method: as §2

[24] = system: velvetleaf (Abutilon theophrasti, ABUTH); assay: as above; conditions: 14 days after application
Summary of the method: as §2

[25] = system: soybean (Glycine max L., var. Pella 86, SOY); assay: Post-emerge greenhouse test, crop damage rating; conditions: 14 days after application
Summary of the method: as §2

[26] = system: soybean (Glycine max L., var. Pella 86, SOY); assay: Pre-emerge greenhouse test, crop damage rating; conditions: 14 days after application, rating scale 0-100
Summary of the method: as §1

## CCN1CC(=O)N(c2cc(Oc3ncccn3)c(Cl)cc2F)C1=O [Compound 8-2]
[1]; 125 g ai/ha
  crop damage rating RICE: 40
[1]; 500 g ai/ha
  crop damage rating RICE: 90
[2]; 125 g ai/ha
  crop damage rating CORN: 0
[2]; 500 g ai/ha
  crop damage rating CORN: 50
[3]; 63 g al/ha
  AMBEL phytotoxicity rating (0-100): 30
[3]; 500 g al/ha
  AMBEL phytotoxicity rating (0-100): 95
[4]; 125 g ai/ha
  phytotoxicity rating ECHCG: 10
[4]; 500 g ai/ha
  phytotoxicity rating ECHCG: 100
[5]; 125 g ai/ha
  phytotoxicity rating AMARE: 100
[5]; 500 g ai/ha
  phytotoxicity rating AMARE: 100
[6]; 125 g ai/ha
  phytotoxicity rating SETVI: 95
[6]; 500 g ai/ha
  phytotoxicity rating SETVI: 100
[7]; 125 g ai/ha
  phytotoxicity rating AMBEL: 95
[7]; 500 g ai/ha
  phytotoxicity rating AMBEL: 100
[8]; 125 g ai/ha
  phytotoxicity rating IPOHE: 100
[8]; 500 g ai/ha
  phytotoxicity rating IPOHE: 100
[9]; 125 g ai/ha
  phytotoxicity rating DIGSA: 90
[9]; 500 g ai/ha
  phytotoxicity rating DIGSA: 100
[10]; 125 g ai/ha
  phytotoxicity rating SORHA: 20
[10]; 500 g ai/ha
  phytotoxicity rating SORHA: 100
[11]; 125 g ai/ha
  phytotoxicity rating CHEAL: 100
[11]; 500 g ai/ha
  phytotoxicity rating CHEAL: 100
[12]; 125 g ai/ha
  phytotoxicity rating CASOB: 0
[12]; 500 g ai/ha
  phytotoxicity rating CASOB: 80
[13]; 125 g ai/ha
  phytotoxicity rating ABUTH: 100
[13]; 500 g ai/ha
  phytotoxicity rating ABUTH: 100
[14]; 63 g al/ha
  RICE crop damage rating (0-100): 0
[14]; 500 g al/ha
  RICE crop damage rating (0-100): 70
[15]; 63 g al/ha
  CORN crop damage rating (0-100): 5
[15]; 500 g al/ha
  CORN crop damage rating (0-100): 15
[16]; 63 g al/ha
  ECHCG phytotoxicity rating (0-100): 10
[16]; 500 g al/ha
  ECHCG phytotoxicity rating (0-100): 50
[17]; 63 g al/ha
  AMARE phytotoxicity rating (0-100): 60
[17]; 500 g al/ha
  AMARE phytotoxicity rating (0-100): 100
[18]; 63 g al/ha
  SETVI phytotoxicity rating (0-100): 10
[18]; 500 g al/ha
  SETVI phytotoxicity rating (0-100): 30
[19]; 63 g al/ha
  IPOHE phytotoxicity rating (0-100): 70
[19]; 500 g al/ha
  IPOHE phytotoxicity rating (0-100): 100
[20]; 63 g al/ha
  DIGSA phytotoxicity rating (0-100): 0
[20]; 500 g al/ha
  DIGSA phytotoxicity rating (0-100): 20
[21]; 63 g al/ha
  SORHA phytotoxicity rating (0-100): 0
[21]; 500 g al/ha
  SORHA phytotoxicity rating (0-100): 20
[22]; 63 g al/ha
  CHEAL phytotoxicity rating (0-100): 80
[22]; 500 g al/ha
  CHEAL phytotoxicity rating (0-100): 100
[23]; 63 g al/ha
  CASOB phytotoxicity rating (0-100): 20
[23]; 500 g al/ha
  CASOB phytotoxicity rating (0-100): 50
[24]; 63 g al/ha
  ABUTH phytotoxicity rating (0-100): 60
[24]; 500 g al/ha
  ABUTH phytotoxicity rating (0-100): 100
[25]; 63 g al/ha
  SOY crop damage rating (0-100): 10
[25]; 500 g al/ha
  SOY crop damage rating (0-100): 90
[26]; 125 g ai/ha
  crop damage rating SOY: 0
[26]; 500 g ai/ha
  crop damage rating SOY: 20

## O=c1n(-c2cc(Oc3ccccc3)c(Cl)cc2F)c(=S)n2n1CCCC2 [Compound 8-5]
[1]; 125 g ai/ha
  crop damage rating RICE: 0
[1]; 500 g ai/ha
  crop damage rating RICE: 25
[2]; 125 g ai/ha
  crop damage rating CORN: 0
[2]; 500 g ai/ha
  crop damage rating CORN: 5
[3]; 63 g al/ha
  AMBEL phytotoxicity rating (0-100): 55
[3]; 500 g al/ha
  AMBEL phytotoxicity rating (0-100): 100
[4]; 125 g ai/ha
  phytotoxicity rating ECHCG: 0
[4]; 500 g ai/ha
  phytotoxicity rating ECHCG: 60
[5]; 125 g ai/ha
  phytotoxicity rating AMARE: 95
[5]; 500 g ai/ha
  phytotoxicity rating AMARE: 100
[6]; 125 g ai/ha
  phytotoxicity rating SETVI: 80
[6]; 500 g ai/ha
  phytotoxicity rating SETVI: 100
[7]; 125 g ai/ha
  phytotoxicity rating AMBEL: 40
[7]; 500 g ai/ha
  phytotoxicity rating AMBEL: 100
[8]; 125 g ai/ha
  phytotoxicity rating IPOHE: 0
[8]; 500 g ai/ha
  phytotoxicity rating IPOHE: 70
[9]; 125 g ai/ha
  phytotoxicity rating DIGSA: 40
[9]; 500 g ai/ha
  phytotoxicity rating DIGSA: 85
[10]; 125 g ai/ha
  phytotoxicity rating SORHA: 20
[10]; 500 g ai/ha
  phytotoxicity rating SORHA: 30
[11]; 125 g ai/ha
  phytotoxicity rating CHEAL: 100
[11]; 500 g ai/ha
  phytotoxicity rating CHEAL: 100
[12]; 125 g ai/ha
  phytotoxicity rating CASOB: 30
[12]; 500 g ai/ha
  phytotoxicity rating CASOB: 95
[13]; 125 g ai/ha
  phytotoxicity rating ABUTH: 100
[13]; 500 g ai/ha
  phytotoxicity rating ABUTH: 100
[14]; 63 g al/ha
  RICE crop damage rating (0-100): 0
[14]; 500 g al/ha
  RICE crop damage rating (0-100): 10
[15]; 63 g al/ha
  CORN crop damage rating (0-100): 5
[15]; 500 g al/ha
  CORN crop damage rating (0-100): 20
[16]; 63 g al/ha
  ECHCG phytotoxicity rating (0-100): 20
[16]; 500 g al/ha
  ECHCG phytotoxicity rating (0-100): 55
[17]; 63 g al/ha
  AMARE phytotoxicity rating (0-100): 100
[17]; 500 g al/ha
  AMARE phytotoxicity rating (0-100): 100
[18]; 63 g al/ha
  SETVI phytotoxicity rating (0-100): 30
[18]; 500 g al/ha
  SETVI phytotoxicity rating (0-100): 65
[19]; 63 g al/ha
  IPOHE phytotoxicity rating (0-100): 90
[19]; 500 g al/ha
  IPOHE phytotoxicity rating (0-100): 100
[20]; 63 g al/ha
  DIGSA phytotoxicity rating (0-100): 0
[20]; 500 g al/ha
  DIGSA phytotoxicity rating (0-100): 70
[21]; 63 g al/ha
  SORHA phytotoxicity rating (0-100): 10
[21]; 500 g al/ha
  SORHA phytotoxicity rating (0-100): 60
[22]; 63 g al/ha
  CHEAL phytotoxicity rating (0-100): 100
[22]; 500 g al/ha
  CHEAL phytotoxicity rating (0-100): 100
[23]; 63 g al/ha
  CASOB phytotoxicity rating (0-100): 55
[23]; 500 g al/ha
  CASOB phytotoxicity rating (0-100): 100
[24]; 63 g al/ha
  ABUTH phytotoxicity rating (0-100): 100
[24]; 500 g al/ha
  ABUTH phytotoxicity rating (0-100): 100
[25]; 63 g al/ha
  SOY crop damage rating (0-100): 50
[25]; 500 g al/ha
  SOY crop damage rating (0-100): 85
[26]; 125 g ai/ha
  crop damage rating SOY: 0
[26]; 500 g ai/ha
  crop damage rating SOY: 40

Source: patent publication US6479435B1, “Diaryl ethers and processes for their preparation and herbicidal and desiccant compositions containing them” (ISK Americas Incorporated, priority 1997, dated 2002)
